Where two headings read alike, the source gives them in different places.
Tests used:
[1] = system: forty-four human cancer cell lines; experiment: Cell proliferation assay (ATPlite, 72 hours) in the 44 cell line Oncolines panel; assay type: cell-based; conditions: Homo sapiens
[2] = molecular target: panel of more than 300 wild-type and mutant kinases (313 kinase panel) (Homo sapiens, UniProt P35968); experiment: Kinase profiling in a biochemical assay panel (mobility shift assays and ELISA), %-inhibition at 1 μM; selectivity entropy
[3] = molecular target: panel of more than 300 wild-type and mutant kinases (313 kinase panel) (Homo sapiens, UniProt P15056, V600E); experiment: as above
[4] = molecular target: panel of more than 300 wild-type and mutant kinases (313 kinase panel) (Homo sapiens, UniProt P15056); experiment: as above
[5] = molecular target: panel of more than 300 wild-type and mutant kinases (313 kinase panel) (Homo sapiens, UniProt Q9UM73, R1275Q); experiment: as above; conditions: kinase ALK(R1275Q); 1 μM compound
[6] = molecular target: panel of more than 300 wild-type and mutant kinases (313 kinase panel) (Homo sapiens, UniProt P09619); experiment: as above; conditions: kinase PDGFRβ; 1 μM
[7] = molecular target: panel of more than 300 wild-type and mutant kinases (313 kinase panel) (Homo sapiens, UniProt P07947, T348I); experiment: as above; conditions: kinase YES(T348I); compound at 1 μM
[8] = molecular target: panel of more than 300 wild-type and mutant kinases (313 kinase panel) (Homo sapiens, UniProt P11362, V561M); experiment: as above; conditions: kinase FGFR1(V561M); compound at 1 μM
[9] = molecular target: panel of more than 300 wild-type and mutant kinases (313 kinase panel) (Homo sapiens, UniProt P00533, L858R/T790M); experiment: as above; conditions: kinase EGFR(T790M/L858R); compound at 1 μM
[10] = molecular target: panel of more than 300 wild-type and mutant kinases (313 kinase panel) (Homo sapiens, UniProt P22612); experiment: as above; conditions: kinase PKACγ; 1 μM
[11] = molecular target: panel of more than 300 wild-type and mutant kinases (313 kinase panel) (Homo sapiens, UniProt P00519); experiment: as above; conditions: 1 µM
[12] = A 172, read-out: cell panel IC50, A-172
[13] = A498, read-out: cell panel IC50, A-498
[14] = AU565, read-out: cell panel IC50, AU-565
[15] = HCT-116, read-out: cell panel IC50, HCT-116
[16] = K562, read-out: cell panel IC50, K-562
[17] = LS174T, read-out: cell panel IC50, LS 174T

Work on CO[C@H]1C[C@@H]2CC[C@@H](C)[C@@](O)(O2)C(=O)C(=O)N2CCCC[C@H]2C(=O)O[C@H]([C@H](C)C[C@@H]2CC[C@@H](OC(=O)C(C)(CO)CO)[C@H](OC)C2)CC(=O)[C@H](C)/C=C(\C)[C@@H](O)[C@@H](OC)C(=O)[C@H](C)C[C@H](C)/C=C/C=C/C=C/1C [temsirolimus] yielded an IC50 [1, 12] of 10 nM, an IC50 ([1]; A204, cell line A-204, read-out: cell panel IC50, A-204) of 2470 nM and an IC50 [1, 13] of 1520 nM. The IC50 ([1]; A549, read-out: cell panel IC50, A-549) was 746 nM, the IC50 ([1]; A-375, cell line A375, read-out: cell panel IC50, A375) was greater than 3160 nM and the IC50 ([1]; A-427, read-out: cell panel IC50, A-427) was 96 nM. For the same compound, the IC50 [1, 14] was 63 nM, the IC50 ([1]; BT-549, read-out: cell panel IC50, BT-549) was 17 nM and the IC50 [1, 15] was 252 nM. For the same compound, the IC50 [1, 16] was greater than 3160 nM, the IC50 [1, 17] was 88 nM and the IC50 ([1]; SHP77, cell line SHP-77, read-out: cell panel IC50, SHP-77) was greater than 3160 nM. It also gave an IC50 ([1]; SW-620, cell line SW620, read-out: cell panel IC50, SW620) greater than 3160 nM, an IC50 ([1]; U2OS, cell line U-2 OS, read-out: cell panel IC50, U-2 OS) of 41 nM and an IC50 ([1]; cell line J82, read-out: cell panel IC50, J82) of 26 nM. The IC50 ([1]; cell line PA-1, read-out: cell panel IC50, PA-1) was 1320 nM, the IC50 ([1]; cell line SJCRH30, read-out: cell panel IC50, SJCRH30) was greater than 3160 nM and the IC50 ([1]; cell line SR, read-out: cell panel IC50, SR) was 8 nM. It also gave an IC50 ([1]; U-87 MG cell line, ATPlite, 72 hours, read-out: IC50 in cell proliferation assay (table S5 cellpanel data)) of 454 nM, an IC50 ([1]; cell line 769-P, read-out: cell panel IC50, 769-P) of 9 nM and an IC50 ([1]; cell line 786-0, read-out: cell panel IC50, 786-0) of 428 nM. The IC50 ([1]; cell line ACHN, read-out: cell panel IC50, ACHN) was greater than 3160 nM, the IC50 ([1]; cell line AN3 CA, read-out: cell panel IC50, AN3 CA) was 792 nM and the IC50 ([1]; cell line BT-20, read-out: cell panel IC50, BT-20) was 33 nM. It also gave an IC50 ([1]; cell line BxPC-3, read-out: cell panel IC50, BxPC-3) greater than 3160 nM, an IC50 ([1]; cell line C-33 A, read-out: cell panel IC50, C-33 A) of 34 nM and an IC50 ([1]; cell line CAL 27, read-out: cell panel IC50, CAL 27) greater than 3160 nM. It also gave an IC50 ([1]; cell line CCRF-CEM, read-out: cell panel IC50, CCRF-CEM) of 15 nM, an IC50 ([1]; cell line DLD-1, read-out: cell panel IC50, DLD-1) of 127 nM and an IC50 ([1]; cell line FaDu, read-out: cell panel IC50, FaDu) greater than 3160 nM. For the same compound, the IC50 ([1]; cell line HCT-15, read-out: cell panel IC50, HCT-15) was 2470 nM, the IC50 ([1]; cell line Hs 578T, read-out: cell panel IC50, Hs 578T) was 100 nM and the IC50 ([1]; cell line Jurkat E6.1, read-out: cell panel IC50, Jurkat E6.1) was 122 nM. For the same compound, the IC50 ([1]; cell line LoVo, read-out: cell panel IC50, LoVo) was greater than 3160 nM, the IC50 ([1]; cell line MG-63, read-out: cell panel IC50, MG-63) was 2220 nM and the IC50 ([1]; cell line MOLT-4, read-out: cell panel IC50, MOLT-4) was 21 nM. For the same compound, the IC50 ([1]; cell line MeWo, read-out: cell panel IC50, MeWo) was 19 nM, the IC50 ([1]; cell line NCI-H82, read-out: cell panel IC50, NCI-H82) was greater than 3160 nM and the IC50 ([1]; cell line NCI-H460, read-out: cell panel IC50, NCI-H460) was 47 nM. It also gave an IC50 ([1]; cell line OVCAR-3, read-out: cell panel IC50, OVCAR-3) greater than 3160 nM, an IC50 ([1]; cell line RPMI-7951, read-out: cell panel IC50, RPMI-7951) of 1.2 nM and an IC50 ([1]; cell line SK-N-AS, read-out: cell panel IC50, SK-N-AS) of 238 nM. The IC50 ([1]; cell line SW48, read-out: cell panel IC50, SW48) was greater than 3160 nM, the IC50 ([1]; cell line SW480, read-out: cell panel IC50, SW480) was 18 nM and the “%-inhibition of KDR” value ([2]; kinase KDR, compound at 1 μM) was -7%. The “%-inhibition, BRAF(V600E)” value ([3]; kinase BRAF(V600E), 1 μM compound) was -0.864%, the “%-inhibition, BRAF” value ([4]; kinase BRAF, 1 μM compound) was -3.36% and the “%-inhibition, ALK(R1275Q)” value [5] was -1.39%. For the same compound, the “%-inhibition of PDGFRβ” value [6] was -2.27%, the “%-inhibition of YES(T348I)” value [7] was -0.177% and the “%-inhibition of FGFR1(V561M)” value [8] was -9%. The “%-inhibition of EGFR(T790M/L858R)” value [9] was -2.75% and the “%-inhibition of PKACγ” value [10] was -6%.
C#Cc1cccc(Nc2ncnc3cc(OCCOC)c(OCCOC)cc23)c1 [erlotinib] was tested, and the IC50 ([1]; 4-4 cell, read-out: cell panel IC50, J82) was 4540 nM, the IC50 ([1]; 4-4 cell, read-out: cell panel IC50, PA-1) was 4070 nM and the IC50 ([1]; 4-4 cell, read-out: cell panel IC50, SJCRH30) was greater than 31600 nM. It also gave an IC50 ([1]; 4-4 cell, read-out: cell panel IC50, SR) of 4230 nM, an IC50 ([1]; 769-P, read-out: cell panel IC50, 769-P) of 20200 nM and an IC50 ([1]; 786-0, read-out: cell panel IC50, 786-0) of 6130 nM. The IC50 [1, 12] was greater than 31600 nM, the IC50 ([1]; A204, read-out: cell panel IC50, A-204) was 5160 nM and the IC50 [1, 13] was 4970 nM. It also gave an IC50 ([1]; A-375, read-out: cell panel IC50, A375) of 5050 nM, an IC50 ([1]; ACHN, read-out: cell panel IC50, ACHN) of 1370 nM and an IC50 ([1]; AN3-CA, read-out: cell panel IC50, AN3 CA) of 4290 nM. The IC50 [1, 14] was 2740 nM, the IC50 ([1]; BT-20, read-out: cell panel IC50, BT-20) was greater than 31600 nM and the IC50 ([1]; BXPC-3, read-out: cell panel IC50, BxPC-3) was 4200 nM. For the same compound, the IC50 ([1]; C-33-A, read-out: cell panel IC50, C-33 A) was 865 nM, the IC50 ([1]; CAL-27, read-out: cell panel IC50, CAL 27) was 256 nM and the IC50 ([1]; CCRF-CEM, read-out: cell panel IC50, CCRF-CEM) was greater than 31600 nM. The IC50 ([1]; DLD-1, read-out: cell panel IC50, DLD-1) was 3870 nM, the IC50 ([1]; FaDu, read-out: cell panel IC50, FaDu) was 1160 nM and the IC50 ([1]; HCT-15, read-out: cell panel IC50, HCT-15) was 6310 nM. For the same compound, the IC50 [1, 15] was 8120 nM, the IC50 ([1]; Hs-578T, read-out: cell panel IC50, Hs 578T) was 7120 nM and the IC50 ([1]; Jurkat E6.1, read-out: cell panel IC50, Jurkat E6.1) was 22600 nM. The IC50 [1, 16] was 7050 nM, the IC50 [1, 17] was 3270 nM and the IC50 ([1]; LoVo, read-out: cell panel IC50, LoVo) was 2240 nM. For the same compound, the IC50 ([1]; MG-63, read-out: cell panel IC50, MG-63) was 13300 nM, the IC50 ([1]; MOLT-4, read-out: cell panel IC50, MOLT-4) was 6340 nM and the IC50 ([1]; MeWo, read-out: cell panel IC50, MeWo) was 9020 nM. For the same compound, the IC50 ([1]; NCI-H82, read-out: cell panel IC50, NCI-H82) was 20100 nM, the IC50 ([1]; NCI-H460, read-out: cell panel IC50, NCI-H460) was 5530 nM and the IC50 ([1]; OVCAR-3, read-out: cell panel IC50, OVCAR-3) was 5460 nM. The IC50 ([1]; RPMI-7951, read-out: cell panel IC50, RPMI-7951) was greater than 31600 nM, the IC50 ([1]; SHP77, read-out: cell panel IC50, SHP-77) was greater than 31600 nM and the IC50 ([1]; SK-N-AS, read-out: cell panel IC50, SK-N-AS) was 5840 nM. It also gave an IC50 ([1]; SW48, read-out: cell panel IC50, SW48) greater than 31600 nM, an IC50 ([1]; SW480, read-out: cell panel IC50, SW480) greater than 31600 nM and an IC50 ([1]; SW-620, read-out: cell panel IC50, SW620) of 6410 nM. The IC50 ([1]; U2OS, read-out: cell panel IC50, U-2 OS) was greater than 31600 nM, the IC50 ([1]; U-87 MG, 72 h, read-out: IC50 in cell proliferation assay (table S5 cellpanel data)) was greater than 31600 nM and the “%-inhibition of KDR” value ([2]; 1 µM) was 74%. For the same compound, the “%-inhibition, BRAF(V600E)” value ([3]; 1 µM) was 8%, the “%-inhibition, BRAF” value ([4]; 1 µM) was 14% and the “%-inhibition, ABL” value [11] was 64%.
